Laboratory results from PMC12175894 (Science Advances, 2025).
Changes are numbered by the printed parent chain. Read-outs that look alike come from different tables or passages of the source.

Assays:
5-HT6R = target: T1, 5-HT6R (Homo sapiens, UniProt P50406); assay: Radioligand competition, displacement of [3H]LSD; type: binding
T1 construct: host or cells: HEK293T, transient; membranes

5-HT1AR F112^3.28W = target: T2, 5-HT1AR F112^3.28W (Homo sapiens, UniProt P08908, F112W); assay: GloSensor cAMP assay in HEK293A cells; type: cell-based
T2 sequence (P08908 1-422 F112W): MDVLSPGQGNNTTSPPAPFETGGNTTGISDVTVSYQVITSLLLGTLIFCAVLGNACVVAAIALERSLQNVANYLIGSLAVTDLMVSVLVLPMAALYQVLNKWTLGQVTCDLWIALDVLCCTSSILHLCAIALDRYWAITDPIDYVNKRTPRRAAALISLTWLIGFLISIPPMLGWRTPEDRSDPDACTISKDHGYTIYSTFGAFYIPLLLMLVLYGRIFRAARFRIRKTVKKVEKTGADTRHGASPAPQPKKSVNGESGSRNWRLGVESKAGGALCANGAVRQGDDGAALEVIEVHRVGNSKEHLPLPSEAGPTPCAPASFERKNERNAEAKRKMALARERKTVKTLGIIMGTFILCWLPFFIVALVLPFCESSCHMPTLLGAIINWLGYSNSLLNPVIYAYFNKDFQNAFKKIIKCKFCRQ

[1] = target: T3, 5-HT1AR F112^3.28W + M92^2.60F (Homo sapiens, UniProt P08908, F112W/M92F); assay: GloSensor cAMP assay in HEK293A cells; type: cell-based
T3 sequence (P08908 1-422 M92F/F112W): T2 sequence (P08908 1-422 F112W) with M92F

5-HT1AR Q97^2.65A = target: T4, 5-HT1AR Q97^2.65A (Homo sapiens, UniProt P08908, Q97A); assay: GloSensor inhibition of cAMP accumulation in HEK293AΔGs; type: cell-based; conditions: for Emax: read-out: Emax [% ± SEM], inhibition of cAMP accumulation
T4 sequence (P08908 1-422 Q97A): T2 sequence (P08908 1-422 F112W) with Q97A, W112F

5-HT1AR wildtype = target: T5, 5-HT1AR wildtype (Homo sapiens, UniProt P08908); assay: β-arrestin 2 recruitment, enhanced bystander BRET in HEK293T with GRK2; type: cell-based; conditions: HEK-293T; read-out: Emax [% ± SEM], β-arrestin 2 recruitment
T5 construct: host or cells: HEK293T, HEK293A, HEK293AΔGs, HEK293AΔGi/o, HEK293AΔARRB1/B2
T5 sequence (P08908 1-422): T2 sequence (P08908 1-422 F112W) with W112F

[2] = target: T3, 5-HT1AR F112^3.28W + M92^2.60F; assay: as above; type: cell-based; conditions: HEK-293T; read-out: Emax [% ± SEM], β-arrestin 2 recruitment
male C56BL/6 mice [3] = assay: 52°C hot plate; type: in vivo, mouse; conditions: wild-type mice, 10 mg/kg
5-HT1AR KO mice = assay: 52°C hot plate in 5-HT1AR KO mice; type: in vivo, mouse
male C56BL/6 mice [4] = assay: Accelerating rotarod; type: in vivo, mouse
5-HT1AR + Gαi1 [5] = target: 5-HT1AR + Gαi1 (Homo sapiens, UniProt P08908)
Sequence of 5-HT1AR + Gαi1 (Homo sapiens, UniProt P08908) (P08908 whole entry): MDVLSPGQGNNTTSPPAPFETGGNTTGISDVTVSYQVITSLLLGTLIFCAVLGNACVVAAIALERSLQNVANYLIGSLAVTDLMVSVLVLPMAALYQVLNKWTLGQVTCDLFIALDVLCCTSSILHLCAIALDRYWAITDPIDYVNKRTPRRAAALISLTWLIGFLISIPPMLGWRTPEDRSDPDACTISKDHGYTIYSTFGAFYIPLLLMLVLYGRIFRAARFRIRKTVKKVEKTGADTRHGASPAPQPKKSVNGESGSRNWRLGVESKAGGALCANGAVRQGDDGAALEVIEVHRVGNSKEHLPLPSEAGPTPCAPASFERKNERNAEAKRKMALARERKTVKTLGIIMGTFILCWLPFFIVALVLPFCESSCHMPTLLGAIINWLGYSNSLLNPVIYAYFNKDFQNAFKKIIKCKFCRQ
Sequence of 5-HT1AR + Gαi1 (Homo sapiens, UniProt P08908) (P63096 2-354 partner limits assumed): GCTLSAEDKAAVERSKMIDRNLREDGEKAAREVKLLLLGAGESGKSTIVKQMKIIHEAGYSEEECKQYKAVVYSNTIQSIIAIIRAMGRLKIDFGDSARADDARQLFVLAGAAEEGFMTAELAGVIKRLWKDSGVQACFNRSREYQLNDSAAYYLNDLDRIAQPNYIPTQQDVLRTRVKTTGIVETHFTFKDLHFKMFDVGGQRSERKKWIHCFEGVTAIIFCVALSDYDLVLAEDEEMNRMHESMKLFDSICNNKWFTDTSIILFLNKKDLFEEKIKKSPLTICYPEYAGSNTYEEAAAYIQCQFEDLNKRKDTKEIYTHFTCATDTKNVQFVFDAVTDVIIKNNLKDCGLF

5-HT1AR + Gαi1 [6] = tested on: 5-HT1AR + Gαi1
opioid κOR = opioid κOR (Homo sapiens, UniProt P41145); assay: Radioligand displacement, [3H]diprenorphine
Sequence of opioid κOR (P41145 whole entry): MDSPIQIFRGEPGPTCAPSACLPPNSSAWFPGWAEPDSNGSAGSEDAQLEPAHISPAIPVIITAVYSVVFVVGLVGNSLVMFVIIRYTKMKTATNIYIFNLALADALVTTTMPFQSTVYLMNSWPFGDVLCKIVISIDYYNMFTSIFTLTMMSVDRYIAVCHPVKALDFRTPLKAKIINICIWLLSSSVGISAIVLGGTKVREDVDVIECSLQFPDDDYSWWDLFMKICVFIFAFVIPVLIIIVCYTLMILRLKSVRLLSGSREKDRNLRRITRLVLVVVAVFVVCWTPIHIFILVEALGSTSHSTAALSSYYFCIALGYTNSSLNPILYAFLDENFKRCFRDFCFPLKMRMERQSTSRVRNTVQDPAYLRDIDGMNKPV

5-HT1AR = target: T6, 5-HT1AR (Homo sapiens, UniProt P08908); assay: GloSensor cAMP assay in HEK293T cells; type: cell-based; set-up: host or cells: HEK293T, HEK293A, HEK293AΔGs, HEK293AΔGi/o, HEK293AΔARRB1/B2
T6 sequence (P08908 1-422): T2 sequence (P08908 1-422 F112W) with W112F

[7] = HEK293-A, read-out: Emax [%±SEM], inhibition of cAMP accumulation
[8] = HEK293-A; read-out: Emax [%±SEM], inhibition of cAMP accumulation

T1 sequence (P50406 whole entry): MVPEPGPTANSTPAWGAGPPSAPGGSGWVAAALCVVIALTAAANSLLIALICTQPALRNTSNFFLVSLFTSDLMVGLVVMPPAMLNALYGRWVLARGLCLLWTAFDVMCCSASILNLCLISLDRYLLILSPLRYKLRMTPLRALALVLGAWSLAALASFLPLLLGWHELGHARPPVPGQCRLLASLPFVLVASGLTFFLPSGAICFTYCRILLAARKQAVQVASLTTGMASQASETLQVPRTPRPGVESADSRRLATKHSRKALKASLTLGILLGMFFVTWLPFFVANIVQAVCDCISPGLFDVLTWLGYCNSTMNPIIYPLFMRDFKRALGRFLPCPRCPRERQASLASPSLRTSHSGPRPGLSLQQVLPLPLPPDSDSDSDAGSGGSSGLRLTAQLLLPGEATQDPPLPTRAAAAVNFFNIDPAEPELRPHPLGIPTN

COc1ccccc1OCCNCCCOc1ccc2c(c1)NC(=O)CO2 [ST171]
Ki (5-HT6R; 5-HT6, read-out: pKi (converted)): 3080 nM | Ki (5-HT6R; 5-HT6R, HEK 293T membranes, read-out: Ki [nM ± SEM]): 3300 ± 300 nM | Emax (5-HT1AR F112^3.28W; [7]): 77 ± 9% | EC50 (5-HT1AR F112^3.28W; HEK293A, GloSensor, F112W; read-out: EC50 left [nM±SEM], inhibition of cAMP accumulation): 1.7 ± 0.5 nM | Emax [1, 7]: 77 ± 5% | EC50 ([1]; HEK293A, GloSensor, F112W + M92F; read-out: EC50 left [nM±SEM], inhibition of cAMP accumulation): 1.7 ± 0.4 nM | EC50 (5-HT1AR Q97^2.65A; HEK293AΔGs, Q97A, read-out: EC50 [nM ± SEM], inhibition of cAMP accumulation): 8 ± 0.9 nM | Emax (5-HT1AR Q97^2.65A): 79 ± 6% | Emax (5-HT1AR wildtype): < 5% | Emax [2]: < 5% | response latency, 52°C hot plate (male C56BL/6 mice [3]): antinociceptive | response latency, hot plate in 5-HT1AR KO mice (5-HT1AR KO mice; 10 mg/kg): no significant antinociceptive effect | sedative effects, accelerating rotarod (male C56BL/6 mice [4]; 10 mg/kg): did not differ from control mice injected with vehicle | sedative effects, accelerating rotarod (male C56BL/6 mice [4]; 15 mg/kg): presumptive sedative effect | Emax (5-HT1AR + Gαi1 [5]): 68 ± 3% | Emax (5-HT1AR + Gαi1 [6]): 57 to 80% | Ki (opioid κOR; Ki [nM ± SD]): 6200 ± 850 nM | Ki (opioid κOR; pKi): 6280 nM | EC50 (5-HT1AR; HEK293T, GloSensor; read-out: EC50 left [nM±SEM], inhibition of cAMP accumulation): 0.9 ± 0.2 nM | Emax (5-HT1AR; HEK-293T, read-out: Emax [%±SEM], inhibition of cAMP accumulation): 100 ± 3%

Cc1ccc(CNCC2(F)CCN(C(=O)c3ccc(F)c(Cl)c3)CC2)nc1 [befiradol, reference compound]
Ki (5-HT6R): > 50000 nM | Emax (5-HT1AR F112^3.28W; [8]): 96 ± 4% | Esat [%±SEM] (5-HT1AR F112^3.28W; HEK293A, GloSensor, F112W): 90 ± 4% | Emax [1, 8]: 92 ± 7% | Emax (5-HT1AR Q97^2.65A): 91 ± 7% | Emax (5-HT1AR wildtype): 79 ± 1% | Emax [2]: 83 ± 4% | response latency, 52°C hot plate (male C56BL/6 mice [3]): antinociceptive | response latency, hot plate in 5-HT1AR KO mice (5-HT1AR KO mice; 1.0 mg/kg): no significant antinociceptive effect | sedative effects, accelerating rotarod (male C56BL/6 mice [4]; all doses >1 mg/kg): significantly reduced the ability of the mouse to continue on the rotarod | Esat [%±SEM] (5-HT1AR; HEK293T, GloSensor): 71 ± 6% | Emax (5-HT1AR; HEK-293T; read-out: Emax [%±SEM], inhibition of cAMP accumulation): 111 ± 6%
